The source of these data is US20220073536A1 (Rigel Pharmaceuticals, Inc., priority 2003, published 2022).

Test [1] concerns cultured human mast cells (CHMC). As to the kind of experiment: CHMC low cell density IgE activation: tryptase assay. Conditions: low cell density CHMC, IgE activation. The test is classed as cell-based. Put shortly:
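CHMC were seeded at 1000–1500 cells/well in MT buffer and incubated 1 hr at 37 °C. They were then stimulated with anti-IgE for 30 min at 37 °C, with unstimulated wells as controls. Released tryptase in the supernatant was measured with a fluorogenic substrate after 30 min at room temperature.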

Test [2] has the same test system. As to the kind of experiment: CHMC low cell density ionomycin activation: tryptase assay. The test is classed as cell-based. As to conditions: low cell density CHMC, 3 pt, read-out: LD Tryptase, CHMC, Iono, 3 pt.
The mark [3] stands for this setting: Homo sapiens, Mast cell, tryptase release, 3 pt, read-out: LD Tryptase, CHMC, IgE, 3 pt.
The mark [4] stands for this setting: Homo sapiens, Mast cell, tryptase release, 8 pt, read-out: LD Tryptase, CHMC, IgE, 8 pt.
Setting [5] is: Homo sapiens, Mast cell, tryptase release.

Molecules are shown by their SMILES. Counter-ions that a name gives are not always drawn. Bounds are passed on as bounds.

Regarding `Cn1ncc2ccc(Nc3ncc(F)c(Nc4ccc5c(c4)NC(=O)C(C)(C)O5)n3)cc21` [Compound 766, N4-(2,2-Dimethyl-3-oxo-4H-benz[1,4]oxazin-6-yl)-5-fluoro-N2-(1-methylindazol-6-yl)-2,4-pyrimidinediamine DL-Camphor-1-sulfonic Acid Salt], the IC50 was under 10 µM in test [1] (tryptase, 3 pt, read-out: LD Tryptase, CHMC, IgE, 3 pt); under 10 µM in test [1] (tryptase, 8 pt, read-out: LD Tryptase, CHMC, IgE, 8 pt); over 10 µM in test [2] (tryptase).
Turning to `Cn1ncc2ccc(Nc3ncc(F)c(Nc4ccc5c(c4)NC(=O)C(C)(C)O5)n3)cc21` [Compound 769, N4-(2,2-Dimethyl-3-oxo-4H-benz[1,4]oxazin-6-yl)-5-fluoro-N2-(1-methylindazol-6-yl)-2,4-pyrimidinediamine Benzenesulfonic Acid Salt], the IC50 in test [1] (setting [3]) was under 10 µM; in test [1] (setting [4]), under 10 µM; in test [2] (setting [5]), over 10 µM.
`COCCn1ncc2cc(Nc3ncc(F)c(Nc4ccc(Cl)c(Cl)c4)n3)ccc21` [Compound 771, N4-(3,4-Dichlorophenyl)-5-fluoro-N2-[1-(2-methoxyethyl)indazol-5-yl]-2,4-pyrimidinediamine]: the IC50 in test [1] (setting [3]) is under 10 µM; in test [1] (setting [4]) it was under 10 µM; in test [2] (setting [5]), over 10 µM.
Regarding `COCCn1ncc2cc(Nc3ncc(F)c(Nc4ccc(OC)c(Cl)c4)n3)ccc21` [Compound 772, N4-(3-Chloro-4-methoxyphenyl)-5-fluoro-N2-[1-(2-methoxyethyl)indazol-5-yl]-2,4-pyrimidinediamine], the IC50 in test [1] (setting [3]) is under 10 µM; in test [1] (setting [4]), under 10 µM; in test [2] (setting [5]) it was over 10 µM.
In the case of `COCCn1ncc2cc(Nc3ncc(F)c(Nc4ccc5c(c4)NC(=O)C(C)(C)O5)n3)ccc21` [Compound 773, N4-(2,2-Dimethyl-3-oxo-4H-benz[1,4]oxazin-6-yl)-5-fluoro-N2-[1-(2-methoxyethyl)indazol-5-yl]-2,4-pyrimidinediamine], the IC50 in test [1] (setting [3]) was under 10 µM; in test [1] (setting [4]), under 10 µM; in test [2] (setting [5]), over 10 µM.
Regarding `COCCn1ncc2cc(Nc3ncc(F)c(Nc4ccc(F)c(OC)c4)n3)ccc21` [Compound 774, 5-Fluoro-N4-(4-fluoro-3-methoxyphenyl)-N2-[1-(2-methoxyethyl)indazol-5-yl]-2,4-pyrimidinediamine], the values for the IC50 in test [1] (setting [3]), in test [1] (setting [4]) and in test [2] (setting [5]) were under 10 µM, under 10 µM and over 10 µM, respectively.
Turning to `COCCn1ncc2ccc(Nc3ncc(F)c(Nc4ccc(Cl)c(Cl)c4)n3)cc21` [Compound 775, N4-(3,4-Dichlorophenyl)-5-fluoro-N2-[1-(2-methoxyethyl)indazol-6-yl]-2,4-pyrimidinediamine], the figures for the IC50 in test [1] (setting [3]), in test [1] (setting [4]) and in test [2] (setting [5]) were under 10 µM, under 10 µM and over 10 µM, respectively.
As for `COCCn1ncc2ccc(Nc3ncc(F)c(Nc4ccc(OC)c(Cl)c4)n3)cc21` [Compound 776, N4-(3-Chloro-4-methoxyphenyl)-5-fluoro-N2-[1-(2-methoxyethyl)indazol-6-yl]-2,4-pyrimidinediamine], the IC50 in test [1] (setting [3]) is under 10 µM; in test [1] (setting [4]) it was under 10 µM; in test [2] (setting [5]), over 10 µM.
Turning to `COCCn1ncc2ccc(Nc3ncc(F)c(Nc4ccc5c(c4)NC(=O)C(C)(C)O5)n3)cc21` [Compound 777, N4-(2,2-Dimethyl-3-oxo-4H-benz[1,4]oxazin-6-yl)-5-fluoro-N2-[1-(2-methoxyethyl)indazol-6-yl]-2,4-pyrimidinediamine], the IC50 in test [1] (setting [3]) is under 10 µM; in test [1] (setting [4]), under 10 µM; in test [2] (setting [5]) it was over 10 µM.
As to `COCCn1ncc2ccc(Nc3ncc(F)c(Nc4ccc(F)c(OC)c4)n3)cc21` [Compound 778, 5-Fluoro-N4-(4-fluoro-3-methoxyphenyl)-N2-[1-(2-methoxyethyl)indazol-6-yl]-2,4-pyrimidinediamine], the IC50 in test [1] (setting [3]) is under 10 µM; in test [2] (setting [5]), over 10 µM.
With `CC(=O)OCCCn1ncc2cc(Nc3ncc(F)c(Nc4ccc(Cl)c(Cl)c4)n3)ccc21` [Compound 787, N2-[1-(3-Acetyloxypropyl)indazol-5-yl]-N4-(3,4-dichlorophenyl)-5-fluoro-2,4-pyrimidinediamine], the IC50 in test [1] (setting [3]) was under 10 µM; in test [1] (setting [4]), under 10 µM; in test [2] (setting [5]), over 10 µM.
With `COc1ccc(Nc2nc(Nc3ccc4c(cnn4CCCOC(C)=O)c3)ncc2F)cc1Cl` [Compound 788, N2-[1-(3-Acetyloxypropyl)indazol-5-yl]-N4-(3-chloro-4-methoxyphenyl)-5-fluoro-2,4-pyrimidinediamine], the IC50 is under 10 µM in test [1] (setting [3]), under 10 µM in test [1] (setting [4]) and over 10 µM in test [2] (setting [5]).
For the molecule `COc1cc(Nc2nc(Nc3ccc4c(cnn4CCCOC(C)=O)c3)ncc2F)ccc1F` [Compound 789, N2-[1-(3-Acetyloxypropyl)indazol-5-yl]-5-fluoro-N4-(4-fluoro-3-methoxyphenyl)-2,4-pyrimidinediamine], the IC50 in test [1] (setting [3]) was under 10 µM; in test [1] (setting [4]), under 10 µM; in test [2] (setting [5]), over 10 µM.
For `CC(=O)OCCCn1ncc2ccc(Nc3ncc(F)c(Nc4ccc(Cl)c(Cl)c4)n3)cc21` [Compound 790, N2-[1-(3-Acetyloxypropyl)indazol-6-yl]-N4-(3,4-dichlorophenyl)-5-fluoro-2,4-pyrimidinediamine], the IC50 is under 10 µM in test [1] (setting [3]), under 10 µM in test [1] (setting [4]) and over 10 µM in test [2] (setting [5]).
Take `CC1(C)Oc2ccc(Nc3nc(Nc4ccc5cnn(CCCO)c5c4)ncc3F)cc2NC1=O` [Compound 791, N4-(2,2-Dimethyl-3-oxo-4H-benz[1,4]oxazin-6-yl)-5-fluoro-N2-[1-(3-hydroxypropyl)indazol-6-yl]-2,4-pyrimidinediamine]: the figures for the IC50 in test [1] (setting [3]), in test [1] (setting [4]) and in test [2] (setting [5]) were under 10 µM, under 10 µM and over 10 µM, respectively.
Take `COCCCn1ncc2cc(Nc3ncc(F)c(Nc4ccc(Cl)c(Cl)c4)n3)ccc21` [Compound 793, N4-(3,4-Dichlorophenyl)-5-fluoro-N2-[1-(3-methoxypropyl)indazol-5-yl]-2,4-pyrimidinediamine]: the IC50 is under 10 µM in test [1] (setting [3]), under 10 µM in test [1] (setting [4]) and over 10 µM in test [2] (setting [5]).
With `COCCCn1ncc2cc(Nc3ncc(F)c(Nc4ccc5c(c4)NC(=O)C(C)(C)O5)n3)ccc21` [Compound 794, N4-(2,2-Dimethyl-3-oxo-4H-benz[1,4]oxazin-6-yl)-5-fluoro-N2-[1-(3-methoxypropyl)indazol-5-yl]-2,4-pyrimidinediamine], the figures for the IC50 in test [1] (setting [3]), in test [1] (setting [4]) and in test [2] (setting [5]) were under 10 µM, under 10 µM and over 10 µM, respectively.
For `COCCCn1ncc2cc(Nc3ncc(F)c(Nc4ccc5c(c4)NC(=O)[C@H](C)O5)n3)ccc21` [Compound 795, (S)-5-Fluoro-N2-[1-(3-methoxypropyl)indazol-5-yl]-N4-(2-methyl-3-oxo-2H,4H-benz[1,4]oxazin-6-yl)-2,4-pyrimidinediamine], the IC50 was under 10 µM in test [1] (setting [3]), under 10 µM in test [1] (setting [4]) and over 10 µM in test [2] (setting [5]).
Take `COCCCn1ncc2ccc(Nc3ncc(F)c(Nc4ccc(OC)c(Cl)c4)n3)cc21` [Compound 796, N4-(3-Chloro-4-methoxyphenyl)-5-fluoro-N2-[1-(3-methoxypropyl)indazol-6-yl]-2,4-pyrimidinediamine]: the IC50 in test [1] (setting [3]) is under 10 µM; in test [1] (setting [4]), under 10 µM; in test [2] (setting [5]) it was over 10 µM.
With `COCCCn1ncc2ccc(Nc3ncc(F)c(Nc4ccc(Cl)c(Cl)c4)n3)cc21` [Compound 797, N4-(3,4-Dichlorophenyl)-5-fluoro-N2-[1-(3-methoxypropyl)indazol-6-yl]-2,4-pyrimidinediamine], the IC50 in test [1] (setting [3]) was under 10 µM; in test [1] (setting [4]), under 10 µM; in test [2] (setting [5]), over 10 µM.
For `COCCCn1ncc2ccc(Nc3ncc(F)c(Nc4ccc5c(c4)NC(=O)C(C)(C)O5)n3)cc21` [Compound 798, N4-(2,2-Dimethyl-3-oxo-4H-benz[1,4]oxazin-6-yl)-5-fluoro-N2-[1-(3-methoxypropyl)indazol-6-yl]-2,4-pyrimidinediamine], the IC50 in test [1] (setting [3]), in test [1] (setting [4]) and in test [2] (setting [5]) was under 10 µM each time.
Turning to `COCCCn1ncc2ccc(Nc3ncc(F)c(Nc4ccc5c(c4)NC(=O)[C@H](C)O5)n3)cc21` [Compound 799, (S)-5-Fluoro-N2-[1-(3-methoxypropyl)indazol-6-yl]-N4-(2-methyl-3-oxo-2H,4H-benz[1,4]oxazin-6-yl)-2,4-pyrimidinediamine], the results for the IC50 in test [1] (setting [3]), in test [1] (setting [4]) and in test [2] (setting [5]) were under 10 µM, under 10 µM and over 10 µM, respectively.
Consider `CC1(C)Oc2ccc(Nc3nc(Nc4ccc5[nH]c(C(F)(F)F)nc5c4)ncc3F)cc2NC1=O` [Compound 802, N4-(2,2-Dimethyl-3-oxo-4H-benz[1,4]oxazin-6-yl)-5-fluoro-N2-(2-trifluoromethyl-1H-benzimidazol-5-yl)-2,4-pyrimidinediamine], for which the figures for the IC50 in test [1] (setting [3]), in test [1] (setting [4]) and in test [2] (setting [5]) were under 10 µM, under 10 µM and over 10 µM, respectively.
Turning to `C[C@@H]1Oc2ccc(Nc3nc(Nc4ccc5[nH]c(C(F)(F)F)nc5c4)ncc3F)cc2NC1=O` [Compound 803, (S)-5-Fluoro-N4-(2-methyl-3-oxo-2H,4H-benz[1,4]oxazin-6-yl)-N2-(2-trifluoromethyl-1H-benzimidazol-5-yl)-2,4-pyrimidinediamine], the IC50 in test [1] (setting [3]) is under 10 µM; in test [1] (setting [4]) it was under 10 µM; in test [2] (setting [5]) it was over 10 µM.
As for `Cc1nc2ccc(Nc3ncc(F)c(Nc4ccc5c(c4)NC(=O)[C@H](C)O5)n3)cc2[nH]1` [Compound 811, (S)-5-Fluoro-N2-(2-methyl-3H-benzimidazol-5-yl)-N4-(2-methyl-3-oxo-2H,4H-benz[1,4]oxazin-6-yl)-2,4-pyrimidinediamine], the IC50 in test [1] (setting [3]) was under 10 µM; in test [1] (setting [4]), under 10 µM; in test [2] (setting [5]), over 10 µM.
